Results from patent publication US20130273181A1, “METHODS AND COMPOSITIONS FOR DIAGNOSING AND TREATING MUSCLE MYOPATHY DISORDERS” (The Regents of the University of Colorado, a body Corporate, priority 2012, published 2013).
“Also recorded” adds a separate entry of the source. Read-outs that look alike come from different tables or passages of the source.

Assays:
[1] = system: Ryr1^m1Nisw/m1Nisw E18.5 diaphragm muscle; assay: EMG recordings / contractility of explanted E18.5 diaphragm muscle; type: cell-based, mouse; settings: for Minutes to Contraction (Stand. Dev): EMG recordings, electrically stimulated; for Minutes to Contraction (Stand. Dev) / contractions / contractility (in words): PMA 50 nM, AICAR 500 μM; for Minutes to Contraction (Stand. Dev) / bath application time after which contractions were elicited / contractions / contractility (in words): Glibenclamide 2 μM, 5HA 200 μM; for bath application time after which contractions were elicited / explants showing contractions: n=6 for each; for explants showing contractions: after 1 hour bath application; for contractions / contractility (in words): bath application, KCl 6 mM, BaCl2 100 μM, potassium gluconate 6 mM, BayK8644 100 nM
Experimental: (§1) In other methods, whether increasing the excitability in E18.5 Ryr1^m1Nisw/m1Nisw whole diaphragm muscle could force the DHPR-RyR1 complex to initiate contractility was examined. In one exemplary method, electromyography recordings (EMG) was performed to examine whether whole muscle in vitro was sensitive to potassium-dependent depolarization by adding potassium to the bath to depolarize the membrane. […] Potassium induced excitability can also be triggered by blocking inward rectifier potassium channels.
(§2) DHPR and RyR1 interact through orthograde and retrograde signaling, but the Ryr1^m1Nisw/m1Nisw mutation is not located within this interaction region. Orthograde signaling from DHPR opens the RyR1 channel in the SR, while retrograde signaling from RyR1 controls the gating of DHPR.
(§3) FIG. 2g represents an exemplary graph of contractility of E18.5 diaphragm muscle from Ryr1^+/+, Ryr1^m1Nisw/m1Nisw, or RyR1^tm1Alle/tm1Alle embryos. After equilibration, all samples were bathed first in 6 mM KCl, followed by wash out and then addition of 100 μm BaCl as indicated. […] FIG. 2h provides an exemplary graph of contractility of E18.5 diaphragm muscle from Ryr1^+/+, Ryr1^m1Nisw/m1Nisw and RyR1^tm1Alle/tm1Alle embryos in 6 mM potassium gluconate (n=4).
(§4) In myotubes, the application of ryanodine at levels that activate RyR increases ERK1/2 protein levels and c-Fos and c-Jun transcript levels. ERK1/2 phosphorylates the most abundant potassium transport protein, Na^+, K^+-ATPase, which, in turn, induces an increase in ion transport. Na^+, K^+-ATPase is essential for maintaining the equilibrium potential of Na^+ and K^+ at the membrane. In one exemplary method, western blot was performed to analyze certain protein levels in Ryr1^m1Nisw/m1Nisw and Ryr1^tm1Alle/tm1Alle embryonic muscle extracts with beta-tubulin served as a loading control. […] In another exemplary method, Phorbol-12-myristate-13-acetate (PMA 50 nM), an activator of ERK1/2 phosphorylation, was applied to the bath of in vitro Ryr1^m1Nisw/m1Nisw diaphragm preparation to increase the phosphorylation of Na^+, K^+-ATPase.
(§5) In certain exemplary methods, restoration of membrane potential and muscle contractions by pharmacological stimulation was tested. First, effect of stimulation of AMPK activity on restoring the resting membrane potential of the mutant diaphragm muscle was determined. An AMPK activator, e.g. 5-aminoimidazole-4-carboxamide-1-β-d-ribofuranoside (AICAR, 500 μM), was bath applied to explanted Ryr1^m1Nisw/m1Nisw E18.5 diaphragm muscles. […] Next, other pharmacological stimuli were examined. […] Glibenclamide (2 μM) and 5-hydrodecanoic acid (5HA, 200 μM) selectively bind to SUR1 and SUR2 to block ATP-sensitive K^+ channels.

[2] = system: Ryr1^tm1Alle/tm1Alle diaphragm muscle; assay: Contractility of explanted E18.5 diaphragm muscle, Ryr1 null; type: cell-based, mouse; settings: same bath concentrations
Experimental: as §1, §2, §3, §4, §5

[3] = system: Ryr1^m1Nisw/m1Nisw diaphragm muscle; assay: Sharp electrode recordings of resting membrane potential of diaphragm muscle; type: cell-based, mouse; settings: for resting membrane potential (in words): Glibenclamide 2 μM, AICAR 500 μM; for resting membrane potential (in words) / resting membrane potential after treatment: PMA 50 nM; for shift in membrane potential / resting membrane potential after treatment: sharp electrode; for shift in membrane potential: PMA 50 nM vs ethanol, AICAR 500 μM n=18; for resting membrane potential after treatment: BaCl2 n=27
Experimental: Therefore, in some exemplary methods, whether voltage dependent orthograde signaling through the DHPR-RyR1 complex could be initiated through changes in membrane potential was first assessed.
as §1, §4, §5

soleus muscle = assay: Steady-state membrane potential (VREST) of two month old soleus muscle at varied extracellular potassium; type: cell-based, mouse; settings: for VREST after drug addition: control 0.6% potassium diet, independent of extracellular potassium
Ryr1^m1Nisw/+ mice [4] = assay: Hanging wire task (upper body muscle strength); type: in vivo, mouse; settings: four weeks of diet, Enalapril in water, or Glyburide 15 mg/kg/day oral gavage
[5] = system: Ryr1^m1Nisw/+ vastus lateralis muscle; assay: Muscle histology (H&E central nuclei, COX staining) of vastus lateralis; type: in vivo, mouse; settings: after four weeks treatment
Description: CCD is diagnosed and subclassified by histopathological analysis using stains such as cytochrome oxidase (COX) and nicotinamide adenine dinucleotide hydride-tetrazolium reductase (NADH-TR) which highlight mitochondria and ATP synthesis, and hematoxylin and eosin stain (H&E) to mark nuclei. In normal muscle, nuclei are located at the periphery of the myofiber and the mitochondria reside throughout the myofiber. Muscle biopsies of CCD patients show centrally located nuclei, as well as disorganized areas in the center of the myofiber called cores that lack mitochondria and are devoid of metabolic activity; these occur in some but not all muscles and are reflective of cellular damage.
Pathological examination is the hallmark diagnosis of CCD. In one exemplary method, the effects of diet on muscle histology were studied. Centrally located nuclei and decreased mitochondrial activity were detected in Ryr1^m1Nisw/+ vastus lateralis muscle compared to Ryr1^+/+ muscle in low potassium and control diets (FIGS. 5c-5k). […] In addition, the CCD phenotype was also rescued by 5-hydrodecanoic acid (5HA), which blocks ATP-sensitive K^+ channels (FIG. 4 and Table 2). […]

Ryr1^m1Nisw/+ mice [6] = assay: Grip strength test (vertical digital push-pull strain gauge); type: in vivo, mouse; settings: 2 month old, four weeks of diet, Enalapril in water, or Glyburide 15 mg/kg/day oral gavage
[7] = RyR1^m1Nisw/+ soleus muscle, bumetanide 75 μM, BaCl2 50 μM
[8] = RyR1^m1Nisw/+ soleus muscle, bumetanide 75 μM, BaCl2 50 μM, Glibenclamide 2 μM, or chronic 5.2% potassium diet
[9] = wild type muscle, low extracellular potassium / Tetanus, bumetanide 75 μM, BaCl2 50 μM, Glibenclamide 2 μM

Structure (SMILES): CCCCCC(O)CCCC(=O)O (stereo not shown) [5HA, 5-hydrodecanoic acid]
- Minutes to Contraction (Stand. Dev) [1]: 106 (52) Minutes
- bath application time after which contractions were elicited [1]: 2 h
- explants showing contractions [1]: 50%
- contractions / contractility (in words) [1]: rescued

Structure (SMILES): NC(=O)c1ncn([C@@H]2O[C@H](CO)[C@@H](O)[C@H]2O)c1N [AICAR, 5-aminoimidazole-4-carboxamide-1-β-d-ribofuranoside]
- Minutes to Contraction (Stand. Dev) [1]: None
- contractions / contractility (in words) [1]: unable to initiate contractions
- contractions / contractility (in words) [2]: unable to initiate contractions
- resting membrane potential (in words) [3]: restore the mutant resting membrane potential to normal levels
- shift in membrane potential [3]: −10.4+/−3.9 mV

Structure (SMILES): [Ba+2].[Cl-].[Cl-] [BaCl2]
- contractions / contractility (in words) [1]: induced stimulated bursts of activity and contractions
- contractions / contractility (in words) ([1]; listed as BaCl): rescued
- contractions / contractility (in words) ([2]; listed as BaCl): failed to contract
- resting membrane potential after treatment [3]: −68.5 mV
- VREST phase (in words) (soleus muscle): driven to phase 2
- VREST after drug addition (soleus muscle; [7]): −91.7+/−3.8 mV
- VREST phase (in words) (soleus muscle; [8]): driven to phase 2

Structure (SMILES): COC(=O)C1=C(C)NC(C)=C([N+](=O)[O-])C1c1ccccc1C(F)(F)F (stereo not shown) [BayK8644]
- contractions / contractility (in words) [1]: induced contractions within minutes
- contractions / contractility (in words) [2]: no contractions occurred

Structure (SMILES): CCOC(=O)[C@H](CCc1ccccc1)N[C@@H](C)C(=O)N1CCC[C@H]1C(=O)O [Enalapril]
- muscle strength in hanging task (in words) (Ryr1^m1Nisw/+ mice [4]): increased grip strength and muscle strength; also recorded: partial rescue of muscle strength
- centrally located nuclei / muscle histology (H&E) [5]: mild improvement in muscle histology
- grip strength (in words) (Ryr1^m1Nisw/+ mice [6]): increased grip strength

Structure (SMILES): COc1ccc(Cl)cc1C(=O)NCCc1ccc(S(=O)(=O)NC(=O)NC2CCCCC2)cc1 [Glibenclamide]
- Minutes to Contraction (Stand. Dev) [1]: 67 (34) Minutes
- bath application time after which contractions were elicited [1]: 2 h
- explants showing contractions [1]: 50%
- muscle strength in hanging task (in words) (Ryr1^m1Nisw/+ mice [4]): increased grip strength and muscle strength; also recorded: Increased grip and hanging strength
- resting membrane potential (in words) [3]: normalized the resting membrane potential
- VREST phase (in words) (soleus muscle; [8]): rescued the phase 2 VREST to phase 1
- VREST phase (in words) (soleus muscle; [9]): protected against phase 2 shifting from phase 1
- centrally located nuclei / muscle histology (H&E) ([5]; listed as Glyburide): lack of centrally-located nuclei; also recorded: rescue the clinical and pathological manifestations of CCD; also recorded: significant reduction in the number of internal nuclei
- grip strength (in words) (Ryr1^m1Nisw/+ mice [6]): Increased grip and hanging strength

Structure (SMILES): [Cl-].[K+] [KCl]
- contractions / contractility (in words) [1]: induced bursts of electrical activity and contractions; also recorded: rescued
- contractions / contractility (in words) [2]: failed to contract

Structure (SMILES): CCCCCCCCCCCCCC(=O)O[C@@H]1[C@@H](C)[C@@]2(O)[C@@H](C=C(CO)C[C@]3(O)C(=O)C(C)=C[C@@H]23)[C@@H]2C(C)(C)[C@]12OC(C)=O [PMA, Phorbol-12-myristate-13-acetate]
- time to contraction after addition [1]: ≤ 5 min
- Minutes to Contraction (Stand. Dev) [1]: 4 (2) Minutes
- contractions / contractility (in words) [1]: strongly elicited contractions
- contractions / contractility (in words) [2]: no effect
- resting membrane potential (in words) [3]: normalized the membrane potential
- resting membrane potential after treatment [3]: −67.7 mV
- shift in membrane potential [3]: −18.3+/−5.3 mV

Structure (SMILES): CCCCNc1cc(C(=O)O)cc(S(N)(=O)=O)c1Oc1ccccc1 [bumetanide]
- VREST after drug addition (soleus muscle; [7]): −92.3+/−4.8 mV
- VREST phase (in words) (soleus muscle; [8]): driven to phase 1
- VREST phase (in words) (soleus muscle; [9]): driven to phase 1

Structure (SMILES): O=C([O-])[C@H](O)[C@@H](O)[C@H](O)[C@H](O)CO.[K+] [potassium gluconate]
- contractions / contractility (in words) [1]: Contractions also transpired
